Earlier results as cited in patent publication US7514574B2, “Biodegradable penetration enhancers with multiple hydrophilic moieties” (priority 2003, dated 2009).

Legend:
[1] = tested on: human cadaver skin; conditions: tritiated water, Hirvonen et al (1993)
[2] = tested on: mice; conditions: mouse, in vivo, ip

Structure (SMILES) | increase of skin permeability to T2O (enhanced flux over passive flux) [1] [times] | LD50 [2] [mg/kg]
CCCCCCCCCCCCN1CCCCCC1=O [Azone, 1-dodecylazacycloheptane-2-one] | 8 | 232
CCCCCCCCCCCCOC(=O)CN(C)C [dodedyl, (N,N-dimethyl amino) acetate, dodecyl (N N-dimethyl amino) acetate] | 13 | –
